Some results are limits rather than exact numbers.

The molecule `Cc1nc(-c2ccc(N3CCOCC3)cc2)sc1-c1ccnc(Nc2ccc(N3CCOCC3)cc2)n1` registered a melting point of 273 to 274 °C.

In turn, `O=C(c1ccc(F)cc1)C1CCN(CCCO)CC1` returned a melting point of 107 to 109 °C.

`Nc1nc(Cl)c(Cl)nc1[N+](=O)[O-]`: the melting point was 169 to 170 °C.

`CCCCCCCCCCCCCCCc1cccc(OCC#CC(=O)C(F)(F)F)c1`: the melting point was 35 to 36 °C.

In the case of `COc1ccc(C(=O)CC(SC(C)=O)C(=O)O)cc1` (stereo not given), the melting point lay in the range of 122 to 124 °C.

`O=C(COCc1ccccc1)Nc1ccc(OC(=O)COCc2ccccc2)cc1` came in with a melting point of 55.5 to 58.5 °C.

Take `N=C(N)NCCC[C@@H](NC(=O)C(c1ccccc1)c1ccccc1)C(=O)NCc1ccc(CCC(N)=O)cc1`: the melting point lay in the range of 207 to 208 °C.

`O=C1N(c2ccccc2)c2ccccc2C1(Cc1ccccn1)Cc1ccccn1` gave a melting point of 107 to 111 °C.

`COc1ccc(C(=O)Nc2nc3ccc(N4CCN(C)CC4)cc3c(NCc3ccccc3)c2C#N)cc1` showed a melting point of 173 °C.

Molecule `CS(=O)(=O)c1ccc(-c2cnn(Cc3ccc4ccccc4n3)c(=O)c2-c2ccc(F)cc2)cc1` returned a melting point of 97 to 100 °C.

For `CC(C)(C)Sc1c(CC(C)(C)C(=O)O)n(Cc2ccc(Cl)cc2)c2cc(OCc3ccc4ccccc4n3)ccc12`, the melting point fell in the range of 165 to 167 °C.

The molecule `COc1ccc2c(c1)OC(C(=O)O)Oc1ccccc1C2` (stereo not given) came in with a melting point of 149 to 153 °C.

The molecule `COc1cc(C)ccc1S(=O)(=O)O` displayed a melting point of 92 to 94 °C.

`COC(=O)c1ccccc1-c1nc(COc2ccc(C=O)cc2OC)c(C)o1` displayed a melting point of 129 to 130 °C.

`COc1cc2nc(SCc3nccc(N4CCOCC4)c3Cl)[nH]c2cc1OC` came in with a melting point of 109 to 112 °C.

The molecule `CCOC(=O)Cc1c(-c2ccccc2)nn2cccnc12` returned a melting point of 86 to 89 °C.

In turn, `CC(C)(C)OC(=O)Nc1ccc(CN2C(=O)C3(COc4cc5c(cc43)OCCO5)c3ccccc32)cn1` (stereo not given) had a melting point of 238 to 239 °C.

`Cn1cnc2c1c1n[nH]c(=O)n1c(=O)n2Cc1ccccc1` returned a melting point of 295 °C.

On to `Cc1ccc(CCCC(=O)O)cc1C`, for which the melting point lay within 50 to 51 °C.

For the molecule `O=C1c2ccccc2C(=O)c2sc(-c3cccs3)nc21`, the melting point is above 260 °C.

The molecule `Nc1c(C(=O)Cc2ccccc2)[nH]c2cc(Cl)ccc12` returned a melting point of 204 to 205 °C.

The molecule `N#Cc1ccc(C(=O)NNc2ccc(NC(=S)Nc3ccccc3)cc2)cc1` yielded a melting point of 184 to 185 °C.

The molecule `N#CC(c1ccc(Cl)c(Cl)c1)c1c(Cl)cc(NN)cc1Cl` (stereo not given) displayed a melting point of 183 to 185 °C.

Consider `Cc1cc(C)n(-c2nc(Nc3cccc4cccnc34)c3ccccc3n2)n1`, for which the melting point was 184 to 185 °C.

Turning to `N#Cc1nn(-c2c(Cl)cc(C(F)(F)F)cc2Cl)c(Br)c1[N+](=O)[O-]`, the melting point was 147 to 150 °C.

`COc1cccc(NC(=O)c2ccn3c2CSC3c2cccnc2)n1` (stereo not given) displayed a melting point of 154 °C.

Molecule `CCOC(Cc1ccc(OCc2nc(C(C)(C)C)oc2C)c2ccccc12)C(=O)O` (stereo not given) registered a melting point of 185 to 186 °C.

Molecule `CCN(Cc1ccc(Cl)nc1)C1=C([N+](=O)[O-])C2CCC(O2)N1C` (stereo not given) showed a melting point of 125 to 126 °C.

For `O=C(O)Cc1ccc(NC(=O)c2ccc(Cl)cc2)cc1`, the melting point is 252 °C.

`O=C(O)C1CCc2onc(-c3ccc(Cl)cc3)c2C1` (stereo not given) yielded a melting point of 203 to 205 °C.

For the molecule `COc1cnc2sc(SCc3ccccc3)nn2c1=O`, the melting point fell in the range of 145 to 147 °C.

For the molecule `CN(C/C=C\c1ccc(Cl)cc1)Cc1cccc2ccccc12`, the melting point lay within 41 to 42 °C.

On to `COc1ccc(N2CCOCC2)c2sc(NC(=O)N3CCCOCC3)nc12`, for which the melting point lay within 171 to 172 °C.

On to `CC1=C(C2C=CN(C(=O)OCC(Cl)(Cl)Cl)C=C2)SCC(=O)N1`, for which the melting point lay within 158 to 160 °C.

In the case of `N#Cc1ccc(CNC(=O)c2cccc(C#CCn3ccnn3)c2)cc1`, the melting point lay within 145 to 147 °C.

`Brc1cc(-c2ccccc2)cc(-c2ccccc2)c1` registered a melting point of 109 °C.

The molecule `COc1ccc(-c2cc(=O)c3ccc(OCCCBr)cc3o2)cc1OC` came in with a melting point of 148 to 149 °C.

The molecule `NC(=O)/C=C1/c2cc(F)ccc2CC1Br` (stereo not given) showed a melting point of 162 to 163 °C.

Regarding `C=CCN1C2CCC1C1CCC2N1C(c1ccc(C(=O)N2CCCC2)cc1)c1cccc(OC)c1` (stereo not given), the melting point was in the range of 46 to 48 °C.

Take `CC(C)(C)NS(=O)(=O)Cl`: the melting point fell in the range of 28 to 30 °C.

`C=CC(=O)OCc1cn(-c2ccccc2)nn1` returned a melting point of 55 to 56 °C.

Regarding `C=C(c1ccc(C(=O)OC)cc1)N1CC1C(N)=O` (stereo not given), the melting point was 149 to 150 °C.

For `CCc1ccnc(C(=O)c2[nH]c3ccc(OC(F)(F)F)cc3c2CC(=O)O)c1`, the melting point was found to be 223 °C.

On to `O=C(c1ccccc1)c1ccc(CP(=O)(O)O)cc1`, for which the melting point was in the range of 172 to 175 °C.

`O=C1c2ccccc2C(=O)N1CC(=O)N1c2ccccc2N(Cc2cccnc2)C(=O)[C@H]2CCC[C@H]21` (relative stereo) registered a melting point of 220 to 223 °C.

For `CC(C)(C)S(=O)(=O)N1C[C@@H](F)C[C@@H]1c1cc(F)cc(C#N)c1`, the melting point lay in the range of 182 to 184 °C.

Regarding `CCN(CC)c1ccc(F)c2nc(Nc3ccc(Cl)cc3Cl)[nH]c12`, the melting point is 204 to 205 °C.

Molecule `O=C1CC[C@@H]2c3ccc(Cl)cc3CCC2N1` (stereo not given in full) came in with a melting point of 242 °C.

In turn, `Oc1ccc(Nc2ccc3cc(Br)ccc3c2)cc1` had a melting point of 179 to 180 °C.

The molecule `CC(=O)N(O)C(C)c1cccc(Nc2ccccc2-c2nnc(N)o2)c1Cl` (stereo not given) gave a melting point of 142 to 146 °C.

Take `O=C1c2cc(O)ccc2OCC1Cc1ccccc1` (stereo not given): the melting point was 140 to 143 °C.

Molecule `CC(C)(C)OC(=O)N1CC=C(C#Cc2ccc3c(c2)NC(=O)CC(c2cccc(C#N)c2)=N3)CC1` registered a melting point of 239 °C.

Consider `CC(=O)Nc1ccc(SC(CCc2ccc(Cl)cc2)Cn2ccnc2)cc1` (stereo not given), for which the melting point was found to be 166 °C.

Molecule `COc1cc(Nc2nccc(-c3cccc(O)c3)n2)cc(OC)c1OC` registered a melting point of 191 to 192 °C.

The molecule `CC(C(=S)c1cc(NC=O)ccn1)S(C)=O` (stereo not given) returned a melting point of 132 °C.

In turn, `CN=C(NC#N)NCCSCc1ccc(CNC)o1` came in with a melting point of 81 to 85 °C.

Regarding `CC(=O)Nc1cc2cc([N+](=O)[O-])ccc2oc1=O`, the melting point lay in the range of 277 to 279 °C.

In turn, `C/C(=N\OC(=O)CN(C)C)[C@H]1CC[C@H]2[C@@H]3CCC4=CC(=O)CC[C@]4(C)[C@H]3CC[C@]12C` gave a melting point of 129 to 131 °C.

As to `N#Cc1ccc(N2CCOCC2)cc1`, the melting point was 80 to 81 °C.

`N#Cc1ccc(OC(Cc2ccc(OCCNC(=O)c3ccc(-c4ccccn4)cc3)cc2)C(=O)O)cc1` (stereo not given): the melting point fell in the range of 92 to 93 °C.

`Cc1cc(O)ccc1Oc1ccccc1` returned a melting point of 96 to 99 °C.

The molecule `Cc1cccc2[nH]c3c(c(C)nn3-c3ccccn3)c(=O)c12` yielded a melting point of 183 to 186 °C.

As to `CCOC(=O)c1nc(N)sc1C(=O)CC`, the melting point is 134 to 135 °C.

The molecule `COC(=O)NC1=NCC(c2ccc(F)cc2)N1C` (stereo not given) returned a melting point of 153 to 155 °C.

In turn, `Cc1cccc(Nc2cc(Nc3ccc(OCC(N)=O)cc3)ncn2)c1` registered a melting point of 212 to 215 °C.

On to `O=C1Nc2cc(C(F)(F)F)cc(C(F)(F)F)c2C1(O)c1cc(Cl)ccc1O` (stereo not given), for which the melting point lay in the range of 191 to 193 °C.

In the case of `CCCc1nc2ccccc2c(C(=O)O)c1Oc1ccc(-c2ccccc2-c2nnn(C(c3ccccc3)(c3ccccc3)c3ccccc3)n2)cc1`, the melting point lay in the range of 167 to 170 °C.

As to `CC(=O)N[C@@H](C)COC1CCN(c2nc3ccc(OCC(F)(F)F)cc3s2)CC1`, the melting point was 129 to 131 °C.

`Cc1cc(COc2c(Cl)cc(C=O)cc2Cl)oc(=O)c1` registered a melting point of 180 °C.

For `C#Cc1cnc2sc(SCCCCCCC)nn2c1=O`, the melting point is 140 to 142 °C.

`CCOC(=O)CNC(=O)CCl` displayed a melting point of 60 to 62 °C.

`CCCCc1nc(Cl)c(C(N)=O)n1Cc1ccc2oc(-c3ccccc3-c3nnn[nH]3)c(Br)c2c1` came in with a melting point of 131 to 133 °C.

Regarding `COc1cc(Nc2nccc(-c3ccc(C#N)cc3)n2)cc(OC)c1OC`, the melting point worked out at 183 °C.

The molecule `CSc1nc(-c2ccncc2)n(-c2ccc(C)cc2)c(=O)c1C#N` yielded a melting point above 250 °C.

The molecule `CC1=C(C(C)O)C(C)(C)CCC1=NO` (stereo not given) had a melting point of 131 to 135 °C.

The molecule `O=c1cc(-c2ccc(CO)cc2)oc2ncccc12` showed a melting point of 218 to 219 °C.

On to `O=C1Nc2ccc(Cl)cc2C1c1ncnc2nn(C3CCCCC3)cc12` (stereo not given), for which the melting point lay in the range of 294 to 298 °C.

Molecule `CCOC(=O)c1ccsc1NC(=O)NC` had a melting point of 83 to 87 °C.

Consider `c1ccc(-c2n[nH]cc2-c2ccnc(-c3ccc(OCCn4ccnc4)cc3)c2)nc1`, for which the melting point was found to be 108 °C.

`CC(C)(OC(=O)C1C2CCC(C2)C1C(F)(F)F)C(F)(F)F` (stereo not given) showed a melting point of 87 to 90 °C.

For the molecule `COc1ccc(OCc2ccccn2)c(/C=C/c2cc(/C=C/c3ccc4cc[nH]c4c3)n[nH]2)c1`, the melting point fell in the range of 119 to 124 °C.

`CC(C)C[C@H](N[C@H](CCN1C(=O)c2cc3ccccc3cc2C1=O)C(=O)OC(C)(C)C)C(=O)O`: the melting point was in the range of 168 to 169 °C.

`Cc1nc(-c2ccc(Br)cc2)n(-c2ccc(S(C)(=O)=O)cc2)n1` registered a melting point of 208 to 209 °C.

Molecule `COc1ccc(C(=O)Nc2ccccc2C(O)C2CCCCN2)cc1` (stereo not given) registered a melting point of 158 to 160 °C.

On to `Cc1ccc2nc(N3CCN(c4c(Cl)cncc4Cl)CC3)[nH]c2c1`, for which the melting point is 251 to 254 °C.

With `NC(C(=O)O)C(=CF)c1c[nH]c2ccc(O)cc12` (stereo not given), the melting point was above 250 °C.

The molecule `O=C(CN1C(=O)c2ccccc2C1=O)Nc1ccccc1OC(F)(F)F` registered a melting point of 192 °C.

As for `COc1cc(N(C)C)ccc1-c1nc2c(N[C@H]3[C@@H](C(N)=O)[C@@H]4C=C[C@H]3C4)ccnc2[nH]1`, the melting point was 185 to 190 °C.

As to `CCCCCCCCCCN1C(=O)C=CC1=O`, the melting point was in the range of 48 to 49 °C.

In turn, `Cc1cccnc1COc1nn2c(-c3ccccc3)nnc2cc1C12CCC(CC1)C2` came in with a melting point of 214 to 216 °C.

In general, melting point refers to the temperature, or range, at which the solid turns liquid.

For the origin of these results see a melting point compilation (Tetko et al.; mined from patent text by program, amines drawn as free bases though some values may be those of a salt).
